The record followed here is patent US20050165011A1, “Benzoxazine and benzoxazinone substituted triazoles” (priority 2002, published 2005).

The test system of data set [1] is TGF-β signaling (PAl-1 promoter luciferase reporter, HepG2 cells). Kind of data set: Cellular transcriptional assay (PAI-1 promoter luciferase reporter in HepG2 cells exposed to TGF-β). It is filed as cell-based. The settings on record: 500 μM CPO in the presence of TGF-β; toxicity control. How it is done:
Assay 1 (Cellular Transcriptional Assay)
The assay was performed in HepG2 cells stably transfected with the PAl-1 promoter (known to be a strong TGF-β responsive promoter) linked to a luciferase (firefly) reporter gene. The compounds were selected on their ability to inhibit luciferase activity in cells exposed to TGF-β. In addition, cells were transfected with a second luciferase (Renilla) gene which was not driven by a TGF-β responsive promoter and was used as a toxicity control.
96 well microplates were seeded, using a multidrop apparatus, with the stably transfected cell line at a concentration of 35000 cells per well in 200 μl of serum-containing medium. These plates were placed in a cell incubator.
18 to 24 hours later (Day 2), cell-incubation procedure was launched. […] Each well contained only one candidate compound and its effect on the PAl-1 promoter was monitored.
Columns 11 and 12 were employed as controls. […] Column 11 was used to determine the ‘reference TGF-β induced firefly luciferase value’ against which values measured in the test wells (to quantify inhibitory activity) were compared. […]
12 to 18 hours later (day 3), the luciferase quantification procedure was launched. […] Following agitation (15 to 30 mins), luciferase activities of the plates were read in a dual-injector luminometer (BMG lumistar). […]

For orientation: melting point means the temperature of the solid-liquid transition. `O=C1COc2ccc(-c3nn[nH]c3-c3ccccn3)cc2N1` registered a melting point of 256 °C. Consider `O=C1C=CCC1` [CPO, Cyclopentenone], for which, in data set [1], the “firefly and renilla luciferase activities relative to TGF-β only wells” value is “around 50%”. On to `CCN1C(=O)COc2ccc(-c3nn[nH]c3-c3cccc(C)n3)cc21`, for which the melting point was found to be 187 °C.

Consider `Cc1cccc(-c2[nH]nnc2-c2ccc3c(c2)N(CCN2CCOCC2)C(=O)CO3)n1`, for which the melting point turned out to be 150 °C. The molecule `Cc1cccc(-c2[nH]nnc2-c2ccc3c(c2)NC(=O)CO3)n1` came in with a melting point of 224 °C. On the same count and under the same terms, in the case of `O=C1COc2ccc(-c3nn[nH]c3-c3cccc(Cl)c3)cc2N1` it was 220 °C.
